Source: patent publication US10059663B2, “Aromatic compound and use thereof” (Kyoto Pharmaceutical Industries, Ltd., priority 2013, dated 2018)

How the values were obtained:
female F344 rats = test: Influence on bone density (ovariectomy, femur, DXA); assay type: in vivo, rat; conditions: at not more than 10 mg/kg; orally once per day, 6 or 7 days per week, 8 weeks; ovariectomized 12-week-old female F344 rats; femur by DXA
Text: 12-week-old female F344 rats (SLC) underwent ovariectomy or sham surgery under anesthesia. The test compound was suspended in 0.5% methylcellulose solution (Wako Pure Chemical Industries, Ltd. Cat. No. 133-14255) and orally administered once per day, 6 or 7 days per week, from two days after the surgery. A 0.5% methylcellulose solution was orally administered to a control group. At 8 weeks from the administration, they were euthanized by drawing the whole blood from the abdominal artery under anesthesia, and the left and right femurs were excised.
The soft tissues were removed from the excised femurs, and the bone density was measured by DXA device DCS-600R (Aloka Co., Ltd.). The bone density was evaluated for the whole femur as well as the whole divided into three equal portions of proximal end, diaphysis and distal end portion.

[1] = system: Mouse bone marrow-derived mesenchymal cell line ST2 cells; test: Osteoblast differentiation test (alkaline phosphatase activity); assay type: cell-based; conditions: ST-2, 96 h, at 0.1 μg/mL, 4 days of culture, absorbance at 405 nm, DMSO control = 100%, read-out: alkaline phosphatase activity (increase rate in absorbance, control as 100%)
Description: Mouse bone marrow-derived mesenchymal cell line ST2 cells (source of supply: RIKEN) were seeded in α-MEM medium containing 10% fetal bovine serum (source of supply: GIBCO BRL Cat. No. 12000-022) in a 96 well plate at a cell density of 4×10^3 cells/0.1 mL/well, and cultured for 24 hr under the conditions of 37° C., 5% CO2. Then, each test compound was added at a final concentration of 0.001-10 μM, and the final concentration 0.1% (v/v) of DMSO was added to the control. After 4 days of culture, alkaline phosphatase (ALP) activity was measured by the following method.
The medium in the cultured 96 well plate was removed, the cells were washed with PBS buffer (KCl 0.2 g/L, KH2PO4 0.2 g/L, Na2HPO4.12H2O 2.9 g/L, NaCl 8 g/L) (100 μL/well), cell lysate (10 mM MgCl2, 2% (v/v) Triton X-100) (50 μL/well) was added, and the mixture was stirred at room temperature for 3 min. A substrate solution (50 mM diethanolamine (Wako Pure Chemical Industries, Ltd. Cat. No. 099-03112), 20 mM […] (Nacalai Tesque Cat. No. 25019-81)) (50 μL/well) was added, and the mixture was left standing at room temperature for 9 min. 1N NaOH 50 μL/well was added to discontinue the reaction, and the absorbance at 405 nm was measured by a microplate reader (Dainippon Pharmaceutical Co., Ltd.)
An increase rate (%) in the absorbance by the test compound was calculated based on the absorbance of the control as 100%, and the differentiation degree of the osteoblast was evaluated.

Structure (SMILES)	bone density (female F344 rats)	activity at 0.1 µg/mL [1] [%]
CC(=O)c1ccc(C(N)=O)cc1Oc1ccc(OCCOC2CCOC2)cc1 (stereo not shown) [Example 67]	significantly increased	≥ 200
COc1cc(Nc2ccc(N3CC(OCCO)C3)cc2)c([N+](=O)[O-])cc1F [Example 2, 2-{1-[4-(4-fluoro-5-methoxy-2-nitrophenylamino)phenyl]azetidin-3-yloxy}ethanol]	–	≥ 200
C[C@@H](O)c1ccc(C(N)=O)cc1Oc1ccc(N2CC(CO)C2)cc1 [Example 94]	–	≥ 200
C[C@@H](O)c1ccc(C(N)=O)cc1Oc1ccc(OCCOC2CCOCC2)cc1 [Example 43, (R)-4-(1-hydroxyethyl)-3-{4-[2-(tetrahydropyran-4-yloxy)ethoxy]phenoxy}benzamide]	significantly increased	≥ 200
CC(F)(F)c1ccc(C(N)=O)cc1Nc1ccc(OCCOC2CCOCC2)cc1 [Example 18, 4-(1,1-difluoroethyl)-3-{4-[2-(tetrahydropyran-4-yloxy)ethoxy]phenylamino}benzamide]	–	≥ 200
NC(=O)c1ccc(C(F)(F)F)c(Nc2ccc(N3CC(OCCO)C3)cc2)c1 [Example 47]	–	≥ 200
CC(=O)c1ccc(C(N)=O)cc1Nc1ccc(OCCOC2CCOCC2)cc1 [Example 17, 4-acetyl-3-{4-[2-(tetrahydropyran-4-yloxy)ethoxy]phenylamino}benzamide]	–	≥ 200
CC(=O)c1ccc(C(N)=O)cc1Oc1ccc(N2CC(O)C2)cc1 [Example 96]	–	≥ 200
CC(=O)c1ccc(C(N)=O)cc1Nc1ccc(OCCOC2CCOC2)cc1 (stereo not shown) [Example 53]	–	≥ 200
CC(=O)c1ccc(C(N)=O)cc1Nc1ccc(OCCOC2CCS(=O)(=O)CC2)cc1 [Example 20, 4-acetyl-3-{4-[2-(1,1-dioxohexahydro-1λ^6-thiopyran-4-yloxy)ethoxy]phenylamino}benzamide]	–	≥ 200
CCC(=O)Nc1cnc(OC)cc1Nc1ccc(N2CC(OCCO)C2)cc1 [Example 45]	–	≥ 200
NC(=O)c1ccc([N+](=O)[O-])c(Nc2ccc(OCCOC3CCOCC3)cc2)c1 [Example 50]	–	≥ 200
NC(=O)c1ccc(C(F)F)c(Oc2ccc(OCCOC3CCOCC3)cc2)c1 [Example 35, 4-difluoromethyl-3-{4-[2-(tetrahydropyran-4-yloxy)ethoxy]phenoxy}benzamide]	–	≥ 200
NC(=O)c1ccc(C(F)(F)F)c(Oc2ccc(OCCOC3CCOCC3)cc2)c1 [Example 64]	–	≥ 200
NC(=O)c1ccc([N+](=O)[O-])c(Nc2ccc(N3CC(OCC4CCCO4)C3)cc2)c1 (stereo not shown) [Example 90]	–	≥ 200
CC(=O)c1ccc(C(N)=O)cc1Oc1ccc(OCCOCCOC(C)C)cc1 [Example 33, 4-acetyl-3-{4-[2-(2-isopropoxyethoxy)ethoxy]phenoxy}benzamide]	–	≥ 200
COc1cc(Nc2ccc(N3CC(OCCNS(N)(=O)=O)C3)cc2)c(NC(C)=O)cn1 [Example 16, N-(4-{4-[3-(2-sulfamoylaminoethoxy)azetidin-1-yl]phenylamino}-6-methoxypyridin-3-yl)acetamide]	–	≥ 200
NC(=O)c1ccc([N+](=O)[O-])c(Oc2ccc(N3CCC(OCCO)CC3)cc2)c1 [Example 63]	–	≥ 200
C[C@@H](O)c1ccc(C(N)=O)cc1Oc1ccc(N2CC(OCCO)C2)cc1 [Example 85]	–	≥ 200
CC(=O)c1ccc(C(N)=O)c(Nc2ccc(OCCOC3CCOCC3)cc2)c1 [Example 57]	–	≥ 200
NC(=O)c1ccc(C(F)(F)F)c(Oc2ccc(COC3CCOCC3)cc2)c1 [Example 82]	–	≥ 200
COc1cc(Nc2ccc(N3CC(O)C3)cc2)c(NC(C)=O)cn1 [Example 88]	–	≥ 200
CC(=O)c1ccc(C(N)=O)c(Nc2ccc(OCCOC3CCS(=O)(=O)CC3)cc2)c1 [Example 58]	–	≥ 200
COc1cc(Nc2ccc(N3CC(OCC4CCCO4)C3)cc2)c(NC(C)=O)cn1 (stereo not shown) [Example 89]	–	≥ 200

Structure (SMILES)	bone density (female F344 rats)	activity at 0.1 µg/mL [1] [%]
NC(=O)c1ccc(C(F)F)c(Oc2ccc(COC3CCOCC3)cc2)c1 [Example 83]	–	≥ 200
CC(=O)c1ccc(C(N)=O)cc1Nc1ccc(N2CC(OCCO)C2)cc1 [Example 6, 4-acetyl-3-{4-[3-(2-hydroxyethoxy)azetidin-1-yl]phenylamino}benzamide]	–	≥ 200
CC(=O)c1ccc(C(N)=O)cc1Oc1ccc(N2CC(OCCO)C2)cc1 [Example 28, 4-acetyl-3-{4-[3-(2-hydroxyethoxy)azetidin-1-yl]phenoxy}benzamide]	–	≥ 200
COc1cc(Nc2ccc(N3CC(N4CCC(CO)CC4)C3)cc2)c(NC(C)=O)cn1 [Example 8, N-(4-{4-[3-(4-hydroxymethylpiperidin-1-yl)azetidin-1-yl]phenylamino}-6-methoxypyridin-3-yl)acetamide]	–	≥ 200
CC(=O)c1ccc(C(N)=O)cc1Oc1ccc(/C=C/COC2CCOCC2)cc1 [Example 34, 4-acetyl-3-{4-[3-(tetrahydropyran-4-yloxy)propenyl]phenoxy}benzamide]	–	≥ 200
CC(C)OCCOCCOc1ccc(Oc2cc(C(N)=O)ccc2C(F)(F)F)cc1 [Example 65]	–	≥ 200
CC(=O)c1ccc(C(N)=O)cc1Oc1ccc(COCCOC(C)C)cc1 [Example 40, 4-acetyl-3-[4-(2-isopropoxyethoxymethyl)phenoxy]benzamide]	–	≥ 200
CC(=O)c1ccc(C(N)=O)cc1Oc1ccc(N2CCC(OCCO)CC2)cc1 [Example 30, 4-acetyl-3-{4-[4-(2-hydroxyethoxy)piperidin-1-yl]phenoxy}benzamide]	–	≥ 200
CNC(=O)c1ccc([N+](=O)[O-])c(Nc2ccc(N3CC(OCCO)C3)cc2)c1 [Example 48]	–	≥ 200
CC(=O)c1ccc(C(N)=O)cc1Oc1ccc(CCCOC2CCOCC2)cc1 [Example 66]	–	≥ 200
NC(=O)c1ccc(C(F)(F)F)c(Oc2ccc(N3CC(OCCO)C3)cc2)c1 [Example 62]	–	≥ 200
CC(=O)c1ccc(C(N)=O)c(Oc2ccc(OCCOC3CCOCC3)cc2)c1 [Example 70]	–	≥ 200
NC(=O)c1ccc([N+](=O)[O-])c(Nc2ccc(N3CC(OCCO)C3)cc2)c1 [Example 5, 3-{4-[3-(2-hydroxyethoxy)azetidin-1-yl]phenylamino}-4-nitrobenzamide]	–	≥ 200
CC(=O)c1ccc(C(N)=O)c(Oc2ccc(N3CC(OCCO)C3)cc2)c1 [Example 29, 4-acetyl-2-{4-[3-(2-hydroxyethoxy)azetidin-1-yl]phenoxy}benzamide]	–	≥ 200
CC(=O)c1ccc(C(N)=O)cc1Oc1ccc(N2CCC2)cc1 [Example 97]	–	≥ 200
COc1cc(Nc2ccc(N3CCN(CC(C)(C)C(=O)O)CC3)cc2)c([N+](=O)[O-])cc1F [Example 13, 3-{4-[4-(4-fluoro-5-methoxy-2-nitrophenylamino)phenyl]piperazin-1-yl}-2,2-dimethylpropionic acid]	–	≥ 200
COc1cc(Nc2ccc(N3CC(N4CCOCC4)C3)cc2)c(NC(C)=O)cn1 [Example 9, N-{6-methoxy-4-[4-(3-morpholin-4-ylazetidin-1-yl)phenylamino]pyridin-3-yl}acetamide]	–	≥ 200
CC(=O)c1ccc(C(N)=O)cc1Nc1ccc(N2CC(OCC3CCCO3)C2)cc1 (stereo not shown) [Example 92]	–	≥ 200
CC(=O)c1ccc(C(N)=O)cc1Oc1ccc(COC2CCOCC2)cc1 [Example 41, 4-acetyl-3-[4-(tetrahydropyran-4-yloxymethyl)phenoxy]benzamide]	–	≥ 200
CC(=O)Nc1ccc(C(N)=O)cc1Nc1ccc(N2CC(OCC3CCCO3)C2)cc1 (stereo not shown) [Example 91]	–	≥ 200
CC(=O)c1ccc(C(N)=O)cc1Oc1ccc(N2CC(CO)C2)cc1 [Example 95]	–	≥ 200
CC(F)(F)c1ccc(C(N)=O)cc1Oc1ccc(OCCOC2CCOCC2)cc1 [Example 74]	–	≥ 200
CC(F)c1ccc(C(N)=O)cc1Oc1ccc(OCCOC2CCOCC2)cc1 (stereo not shown) [Example 39, 4-(1-fluoroethyl)-3-{4-[2-(tetrahydropyran-4-yloxy)ethoxy]phenoxy}benzamide]	–	≥ 200
